The text below walks through data of patent US20240199613A1 (TAKEDA PHARMACEUTICAL COMPANY LIMITED, priority 2021, published 2024).

Structures can show the parent of a compound that is named as a salt.

The target in assay [1] is human activated kallikrein enzyme (Homo sapiens, UniProt P03952). Kind of assay: Inhibition of activated plasma kallikrein, fluorogenic peptide substrate (PFR-AMC) assay, 500 pM enzyme format. It is filed as biochemical. The settings on record: 500 pM activated kallikrein, 300 uM PFR-AMC, 30 min preincubation, 10 min reaction, room temperature; read-out: Primary Dose Response Assay: Average EC50. How it is done: Compounds were evaluated for inhibition of the human activated kallikrein enzyme in two formats of an assay employing a fluorogenic peptide substrate. In one assay format, the concentrations of reagents were as follows: 20 mM Tris pH 7.5, 1 mM EDTA, 150 mM sodium chloride, 0.1% PEG-400, 0.1% Triton X-100, 500 pM activated kallikrein enzyme, 300 uM Pro-Phe-Arg-7-amido-4-methylcoumarin (PFR-AMC) substrate. Prior to reaction initiation with substrate, enzyme and inhibitors were preincubated for 30 min at room temperature. After initiation with substrate, reactions were incubated for 10 min at room temperature and fluorescence emission at 460 nm from 380 nm excitation measured with a microplate reader. In another assay format, the concentrations of reagents were as follows: 20 mM Tris pH 7.5, 1 mM EDTA, 150 mM sodium chloride, 0.1% PEG-400, 0.1% Triton X-100, 5 pM activated kallikrein enzyme, 300 uM PFR-AMC substrate. Prior to reaction initiation with substrate, enzyme and inhibitors were preincubated for 30 min at room temperature. After initiation with substrate, reactions were incubated for 18 hr at room temperature and fluorescence emission at 460 nm from 380 nm excitation measured with a microplate reader.
Table 6 provides the results of the assay in the format with 500 pM activated kallikrein assay.

The next assay has as its target T1, plasma kallikrein (Homo sapiens, UniProt P03952).
T1 construct: from tissue; host or cells: sodium citrate collected human plasma (78% final)
The assay is described as follows: Neat human plasma assay: contact pathway-activated (FXIIa) plasma, PFR-AMC substrate. It is filed as biochemical. Conditions: citrated human plasma (78% final), 10 nM human FXIIa, 100 μM PFR-AMC, room temperature. How it is done: To analyze inhibition of plasma kallikrein in an ex vivo setting, the potency of compounds was measure in contact pathway-activated plasma assays. In a fluorogenic peptide substrate assay, test compounds dissolved in DMSO were added to sodium citrate collected human or rat plasma in a 96-well microplate. Alternatively, citrated plasma was collected from rats administered the compounds orally or by IV. 10 nM of human FXIIa (Enzyme Research Laboratories) diluted in pKal buffer (20 mM Tris-HCl, pH 7.5, 150 mM NaCl, 1 mM EDTA, 0.1% PEG-8000, and 0.1% Triton X-100) was added to the plasma, followed by the 100 μM of the profluorescent, synthetic plasma kallikrein substrate PFR-AMC (also diluted in pKal buffer). Final plasma concentration in the reaction was 78%. Fluorescence was immediately monitored by excitation/emission wavelengths of 360 nm/480 nm respectively over a period of 5 minutes in a microplate reader. The resulting linear increase in fluorescence emission (reflecting pKal proteolysis of PFR-AMC substrate) was fit to extract a proteolytic rate (fluorescent units over time), and this rate was subsequently plotted against compound inhibitor concentration. Resulting plots were fit to a standard 4-parameter IC50/IC90 equation to determine min/max values, IC50/90, and slope. All experimental steps were performed at room temperature.

T1 sequence (P03952 391-638 limits assumed): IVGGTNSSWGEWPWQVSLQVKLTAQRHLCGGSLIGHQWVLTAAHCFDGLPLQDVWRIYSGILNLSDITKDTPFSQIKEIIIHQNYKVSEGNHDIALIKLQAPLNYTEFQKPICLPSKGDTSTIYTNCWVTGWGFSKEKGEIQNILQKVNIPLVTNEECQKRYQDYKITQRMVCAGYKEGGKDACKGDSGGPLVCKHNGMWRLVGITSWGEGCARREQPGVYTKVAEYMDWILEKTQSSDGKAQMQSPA
T1 sequence (P03952 20-390 partner limits assumed): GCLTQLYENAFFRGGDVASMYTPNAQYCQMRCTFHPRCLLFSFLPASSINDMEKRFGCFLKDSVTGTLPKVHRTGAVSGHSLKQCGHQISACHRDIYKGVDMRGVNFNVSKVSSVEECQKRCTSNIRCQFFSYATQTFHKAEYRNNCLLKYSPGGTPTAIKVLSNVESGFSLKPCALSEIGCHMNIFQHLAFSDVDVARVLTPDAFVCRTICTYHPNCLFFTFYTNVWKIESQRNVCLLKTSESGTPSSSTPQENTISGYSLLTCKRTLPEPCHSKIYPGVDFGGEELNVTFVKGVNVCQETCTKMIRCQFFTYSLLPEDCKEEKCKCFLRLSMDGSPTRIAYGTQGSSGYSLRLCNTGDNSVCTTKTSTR
Chain of human activated kallikrein enzyme (P03952 391-638 limits assumed): as the sequence (P03952 391-638 limits assumed) above
Chain of human activated kallikrein enzyme (P03952 20-390 partner limits assumed): as the sequence (P03952 20-390 partner limits assumed) above

Regarding `Cc1ccnc([C@H]2C[C@@H]2c2cc(N(C)C)c3ccc(NCc4cn5cc(C6CC6)ccc5n4)cc3n2)n1` (racemic) [Example 1, rac-N^7-((6-cyclopropylimidazo[1,2-a]pyridin-2-yl)methyl)-N^4,N^4-dimethyl-2-((1S*,2S*)-2-(4-methylpyrimidin-2-yl)cyclopropyl)quinoline-4,7-diamine], the EC50 in assay [1] was no more than 1 nM. This molecule came in with an IC90 at plasma kallikrein of 400 to 1500 nM.

In the case of `CN1C(=O)CN(c2cc(C3CC3)cn3cc(CNc4ccc5c(=O)cc([C@H]6C[C@@H]6c6cccc(Cl)c6)[nH]c5c4)nc23)C1=O` (racemic) [Example 5, rac-1-(2-(((2-((1S*,2S*)-2-(3-chlorophenyl)cyclopropyl)-4-oxo-1,4-dihydroquinolin-7-yl)amino)methyl)-6-cyclopropylimidazo[1,2-a]pyridin-8-yl)-3-methylimidazolidine-2,4-dione], the EC50 in assay [1] fell in the range of 1 to 10 nM. Further, on plasma kallikrein, the IC90 fell in the range of 1500 to 10000 nM.

As for `Cc1ccnc([C@H]2C[C@@H]2c2nc3cc(NCc4cn5cc(C6CC6)cc(N6CC(=O)N(C)C6=O)c5n4)ncc3c(=O)[nH]2)n1` (racemic) [Example 7, rac-1-(6-cyclopropyl-2-(((2-((1S*,2S*)-2-(4-methylpyrimidin-2-yl)cyclopropyl)-4-oxo-3,4-dihydropyrido[4,3-d]pyrimidin-7-yl)amino)methyl)imidazo[1,2-a]pyridin-8-yl)-3-methylimidazolidine-2,4-dione], in assay [1], the EC50 is no more than 1 nM. The molecule further gave an IC90 against plasma kallikrein of 400 to 1500 nM.

In the case of `Cc1ccnc([C@H]2C[C@@H]2c2nc(=O)c3ccc(NCc4cn5cc(C6CC6)cc(N6CC(=O)N(C)C6=O)c5n4)cc3[nH]2)n1` (racemic) [Example 8, rac-1-(6-cyclopropyl-2-(((2-((1S*,2S*)-2-(4-methylpyrimidin-2-yl)cyclopropyl)-4-oxo-1,4-dihydroquinazolin-7-yl)amino)methyl)imidazo[1,2-a]pyridin-8-yl)-3-methylimidazolidine-2,4-dione], the EC50 in assay [1] was no more than 1 nM. The molecule further displayed an IC90 at plasma kallikrein of 1500 to 10000 nM.

In the case of `Cc1ccnc([C@H]2C[C@@H]2c2nc3cc(NCc4cn5cc(C6CC6)cc(N6CC(=O)N(C)C6=O)c5n4)cnc3c(=O)[nH]2)n1` (racemic) [Example 9, rac-1-(6-cyclopropyl-2-(((2-((1S*,2S*)-2-(4-methylpyrimidin-2-yl)cyclopropyl)-4-oxo-3,4-dihydropyrido[3,2-d]pyrimidin-7-yl)amino)methyl)imidazo[1,2-a]pyridin-8-yl)-3-methylimidazolidine-2,4-dione], the EC50 in assay [1] was no more than 1 nM. The molecule also yielded an IC90 against plasma kallikrein of 1500 to 10000 nM.

Regarding `Cc1ccnc([C@H]2C[C@@H]2c2cc(=O)c3cnc(NCc4cn5cc(C6CC6)cc(N6CC(=O)N(C)C6=O)c5n4)cc3[nH]2)n1` (racemic) [Example 10, rac-1-(6-cyclopropyl-2-(((2-((1S*,2S*)-2-(4-methylpyrimidin-2-yl)cyclopropyl)-4-oxo-1,4-dihydro-1,6-naphthyridin-7-yl)amino)methyl)imidazo[1,2-a]pyridin-8-yl)-3-methylimidazolidine-2,4-dione], in assay [1], the EC50 was no more than 1 nM. Besides, on plasma kallikrein, the IC90 is no more than 400 nM.

With `Cc1ccnc([C@H]2C[C@@H]2c2cc(=O)c3ccc(NCc4cn5cc(C6CC6)cc(N6CC(=O)N(C)C6=O)c5n4)cc3[nH]2)n1` (racemic) [Example 11, rac-1-(6-cyclopropyl-2-(((2-((1S*,2S*)-2-(4-methylpyrimidin-2-yl)cyclopropyl)-4-oxo-1,4-dihydroquinolin-7-yl)amino)methyl)imidazo[1,2-a]pyridin-8-yl)-3-methylimidazolidine-2,4-dione], the EC50 in assay [1] was no more than 1 nM. The IC90 at plasma kallikrein fell in the range of 400 to 1500 nM.

Regarding `Cc1ccnc([C@H]2C[C@@H]2c2ccc3ncc(NCc4cn5cc(C6CC6)cc(N6CC(=O)N(C)C6=O)c5n4)cc3n2)n1` (racemic) [Example 14, rac-1-(6-cyclopropyl-2-(((6-((1S*,2S*)-2-(4-methylpyrimidin-2-yl)cyclopropyl)-1,5-naphthyridin-3-yl)amino)methyl)imidazo[1,2-a]pyridin-8-yl)-3-methylimidazolidine-2,4-dione], in assay [1], the EC50 was 1 to 10 nM. In addition, the IC90 against plasma kallikrein is 1500 to 10000 nM.

As to `Cc1ccnc([C@H]2C[C@@H]2c2ccc3cnc(NCc4cn5cc(C6CC6)cc(N6CC(=O)N(C)C6=O)c5n4)cc3n2)n1` (racemic) [Example 15, rac-1-(6-cyclopropyl-2-(((2-((1S*,2S*)-2-(4-methylpyrimidin-2-yl)cyclopropyl)-1,6-naphthyridin-7-yl)amino)methyl)imidazo[1,2-a]pyridin-8-yl)-3-methylimidazolidine-2,4-dione formic acid salt], the EC50 in assay [1] was in the range of 1 to 10 nM. At plasma kallikrein, this molecule yielded an IC90 of 1500 to 10000 nM.

With `COc1cc([C@H]2C[C@@H]2c2nccc(C)n2)nc2cc(NCc3cn4cc(C5CC5)ccc4n3)ccc12` (racemic) [Example 20, rac-N-((6-cyclopropylimidazo[1,2-a]pyridin-2-yl)methyl)-4-methoxy-2-((1S*,2S*)-2-(4-methylpyrimidin-2-yl)cyclopropyl)quinolin-7-amine], the EC50 in assay [1] is 1 to 10 nM. Moreover, the IC90 against plasma kallikrein lay in the range of 10000 to 22000 nM.

As to `Cc1ccnc([C@@H]2C[C@H]2C2=NS(=O)(=O)c3ccc(NCc4cn5cc(C6CC6)ccc5n4)cc3N2)n1` (single isomer, unassigned) [Example 66], the EC50 in assay [1] lay in the range of 10 to 100 nM.

For `O=c1[nH]c([C@H]2C[C@@H]2c2cccc(Cl)c2)nc2cc(NCc3cn4cc(C5CC5)ccc4n3)ncc12` [Example 2, 2-((1S,2S)-2-(3-chlorophenyl)cyclopropyl)-7-(((6-cyclopropylimidazo[1,2-a]pyridin-2-yl)methyl)amino)pyrido[4,3-d]pyrimidin-4 (3H)-one], in assay [1], the EC50 is 10 to 100 nM.

Consider `COc1cc([C@H]2C[C@@H]2c2cccc(Cl)c2)nc2cc(NCc3cn4cc(C5CC5)cc(N5CC(=O)N(C)C5=O)c4n3)ncc12` [Example 18, 1-(2-(((2-((1S,2S)-2-(3-chlorophenyl)cyclopropyl)-4-methoxy-1,6-naphthyridin-7-yl)amino)methyl)-6-cyclopropylimidazo[1,2-a]pyridin-8-yl)-3-methylimidazolidine-2,4-dione], for which, in assay [1], the EC50 was in the range of 10 to 100 nM.

As to `Clc1cccc([C@H]2C[C@@H]2c2nc3ncncc3n2Cc2cn3cc(C4CC4)ccc3n2)c1` [Example 44, 8-((1S,2S)-2-(3-chlorophenyl)cyclopropyl)-7-((6-cyclopropylimidazo[1,2-a]pyridin-2-yl)methyl)-7H-purine], the EC50 in assay [1] was greater than 6500 nM.

In the case of `Clc1cccc([C@H]2C[C@@H]2c2nc3ccc(NCc4cn5cc(C6CC6)ccc5n4)cc3[nH]2)c1` [Example 45, 2-((1S,2S)-2-(3-chlorophenyl)cyclopropyl)-N-((6-cyclopropylimidazo[1,2-a]pyridin-2-yl)methyl)-1H-benzo[d]imidazol-6-amine], the EC50 in assay [1] is greater than 6500 nM.

In the case of `Clc1cccc([C@H]2C[C@@H]2c2nc3cccc(NCc4cn5cc(C6CC6)ccc5n4)c3[nH]2)c1` [Example 46, 2-((1S, 2S)-2-(3-chlorophenyl)cyclopropyl)-N-((6-cyclopropylimidazo[1,2-a]pyridin-2-yl)methyl)-1H-benzo[d]imidazol-7-amine], in assay [1], the EC50 was greater than 6500 nM.

In the case of `O=c1nc([C@H]2C[C@@H]2c2cccc(Cl)c2)[nH]c2cc(NCc3cn4cc(C5CC5)ccc4n3)ccc12` [Example 50, 2-((1S,2S)-2-(3-chlorophenyl)cyclopropyl)-7-(((6-cyclopropylimidazo[1,2-a]pyridin-2-yl)methyl)amino)quinazolin-4 (1H)-one], the EC50 in assay [1] is 10 to 100 nM.

In the case of `Cc1ccnc([C@H]2C[C@@H]2C2=NS(=O)(=O)c3ccc(NCc4cn5cc(C6CC6)ccc5n4)cc3N2C)n1` [Example 94, 6-(((6-cyclopropylimidazo[1,2-a]pyridin-2-yl)methyl)amino)-4-methyl-3-((1S,2S)-2-(4-methylpyrimidin-2-yl)cyclopropyl)-4H-benzo[e][1,2,4]thiadiazine 1,1-dioxide], the EC50 in assay [1] fell in the range of 100 to 6500 nM.

Broadly, the EC50 is the concentration at which the effect is half-maximal. The term IC90 denotes the concentration needed for an effect of 90%. A higher IC90 goes with a need for much substance.
